Source: patent US20220127247A1, “N-(PYRIDIN-2-YL)PYRIDINE-SULFONAMIDE DERIVATIVES AND THEIR USE IN THE TREATMENT OF DISEASE” (NOVARTIS AG, priority 2019, published 2022)

Key:
[1] = biological target: T1, delF508-CFTR (Homo sapiens, UniProt P13569, DEL508-508); assay: Measurement of delF508-CFTR-HRP surface expression in CFBE41o- cells; format: cell-based; settings: for EC50: HRP-tagged delF508-CFTR in CFBE41o- cells, 24 h with compound, luminescence, 10-point curve, top 10 μM; for Emax: efficacy relative to reference compound 3-(6-(1-(2,2-difluorobenzo[d][1,3]dioxol-5-yl)cyclopropane-1-carboxamido)-3-methylpyridin-2-yl)benzoic acid, CFBE41o- cells, 24 h, read-out: DelF508-CFTR-HRP Amax %
T1 construct: expressed in transfected cells
T1 sequence (P13569 with tags, fused parts or gaps DEL508-508): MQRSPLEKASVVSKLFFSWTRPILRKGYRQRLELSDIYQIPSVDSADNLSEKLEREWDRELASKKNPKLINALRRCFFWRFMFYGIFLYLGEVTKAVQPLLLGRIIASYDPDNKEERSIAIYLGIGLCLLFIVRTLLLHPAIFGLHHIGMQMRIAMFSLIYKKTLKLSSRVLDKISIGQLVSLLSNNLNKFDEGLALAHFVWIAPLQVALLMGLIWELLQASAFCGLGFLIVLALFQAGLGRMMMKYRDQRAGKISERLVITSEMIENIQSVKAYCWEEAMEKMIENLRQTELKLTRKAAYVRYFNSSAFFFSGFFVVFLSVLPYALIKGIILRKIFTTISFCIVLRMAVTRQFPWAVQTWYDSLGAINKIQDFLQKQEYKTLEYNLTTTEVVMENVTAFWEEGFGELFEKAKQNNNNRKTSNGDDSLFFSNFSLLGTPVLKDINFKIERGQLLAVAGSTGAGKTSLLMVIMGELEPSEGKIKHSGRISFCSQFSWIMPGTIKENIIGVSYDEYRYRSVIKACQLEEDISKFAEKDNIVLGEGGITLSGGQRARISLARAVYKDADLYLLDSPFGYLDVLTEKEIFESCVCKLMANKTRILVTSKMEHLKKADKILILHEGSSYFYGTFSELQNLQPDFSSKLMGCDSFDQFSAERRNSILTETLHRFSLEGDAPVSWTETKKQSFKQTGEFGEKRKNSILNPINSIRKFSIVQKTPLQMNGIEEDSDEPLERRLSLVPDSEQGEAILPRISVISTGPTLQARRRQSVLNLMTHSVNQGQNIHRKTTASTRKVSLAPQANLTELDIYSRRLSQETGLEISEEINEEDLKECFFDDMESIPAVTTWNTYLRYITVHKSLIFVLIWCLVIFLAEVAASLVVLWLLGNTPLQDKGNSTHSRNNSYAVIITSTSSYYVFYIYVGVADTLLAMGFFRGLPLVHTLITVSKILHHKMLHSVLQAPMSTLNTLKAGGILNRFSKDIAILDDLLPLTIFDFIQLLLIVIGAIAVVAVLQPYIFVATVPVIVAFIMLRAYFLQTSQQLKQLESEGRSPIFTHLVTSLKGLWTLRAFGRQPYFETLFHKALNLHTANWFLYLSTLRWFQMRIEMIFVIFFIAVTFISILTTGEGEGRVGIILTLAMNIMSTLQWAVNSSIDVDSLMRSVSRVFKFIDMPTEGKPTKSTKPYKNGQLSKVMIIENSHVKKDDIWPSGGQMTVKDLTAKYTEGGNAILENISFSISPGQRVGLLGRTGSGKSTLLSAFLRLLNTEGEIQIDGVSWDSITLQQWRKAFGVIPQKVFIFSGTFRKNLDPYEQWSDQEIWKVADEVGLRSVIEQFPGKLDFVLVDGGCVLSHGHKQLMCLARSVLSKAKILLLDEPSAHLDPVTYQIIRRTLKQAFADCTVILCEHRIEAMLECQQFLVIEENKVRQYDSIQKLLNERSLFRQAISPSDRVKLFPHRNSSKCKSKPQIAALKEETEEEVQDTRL
How it was run: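 CFBE41o- cells stably expressing delF508-CFTR with HRP in the fourth extracellular loop, induced with 500 ng/mL doxycycline for 48 h, then treated with compound (top 10 μM, 10-point 3-fold) for 24 h at 37° C. Surface HRP detected by luminescence with cell-impermeant substrate; EC50 from logistic fit of triplicates, normalized to lowest concentration.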

[2] = biological target: T1, delF508-CFTR; assay: delF508-CFTR functional activity in primary human bronchial epithelial cells (HBECs), Multi-Transepithelial Clamp Circuit (MTECC-24) assay; format: cell-based; settings: for EC50: primary human delF508-CFTR bronchial epithelial cells, 24 h with compound, equivalent short circuit current (Ieq), forskolin plus potentiator, mean of at least two replicates, read-out: MTECC24-CFHBEC EC50; for MTECC24-CFHBEC Amax %: test compound added 24 h before assay, with potentiator (S)-3-amino-6-methoxy-N-(3,3,3-trifluoro-2-hydroxy-2-methylpropyl)-5-(trifluoromethyl)picolinamide, relative to 2 μM 3-(6-(1-(2,2-difluorobenzo[d][1,3]dioxol-5-yl)cyclopropane-1-carboxamido)-3-methylpyridin-2-yl)benzoic acid + 0.5 μM N-(2,4-di-tert-butyl-5-hydroxyphenyl)-4-oxo-1,4-dihydroquinoline-3-carboxamide
Text: Measurement of delF508-CFTR Functional Activity in Primary Human Bronchial Epithelial Cells (HBECs) Using Multi-Transepithelial Clamp Circuit (MTECC-24) Assay
This assay measures the functional activity of the CFTR channel (Chloride ion transport) in patient derived primary human bronchial epithelial cells with forskolin activation and in the presence of the CFTR corrector/potentiator combination.
Primary human delF508-CFTR bronchial epithelial cells were and cultured according to previously established methods (Neuberger, T. et, al., Methods in Molecular Biology, 2011, 741, pp 39-54). Briefly, before thawing the HBEC cells, T25 flasks were coated with 2 mL of 3T3 conditioned media (MTI-GlobalStem, Cat #GSM9100) for at least 12 hours in 37° C. CO2 incubator. 1.7×10^5 cells were seeded into one T25 flask with 5 mL of HBE growth media (BEBM with supplements (Lonza, Cat #CC-3170) with 10 nM of retinoic acid (Sigma, Cat #R-2625) and 1% of PSA (Hyclone, Cat #SV30079.01). Media was changed every day till the cells were 100% confluent. Cells were seeded into T75 flasks (pre-coated with 5 mL of 3T3 conditioned media for more than 12 hrs) at 4.95×10^5 cells/T75 flask in 15 mL of HBE growth media. Flasks were fed everyday with fresh HBE growth media until the cells were confluent. 24-well transwell plates (Corning, Cat #3378) were coated with 3T3 conditioned media (70 μL on top of the filter, 350 μL to the bottom of the well) overnight in the 37° C. CO2 incubator. Cells were seeded in the pre-coated 24-well transwell plates at 1.7×10^5 cell/well with 700 μL of growth media at the bottom of the well and 200 μL of growth media at the top of the filter. After 24 hrs, cells were switched into HBE differentiation media ((DMEM/F12 (Gibco, Cat #11330-032) supplement with 2% Ultroser G (Pall, Cat #15950-017), 2% of Fetal Clone II (Hyclone, Cat #SH30066.03), 0.25% Bovine Brain Extract (Lonza, Cat #CC-4098), 1% of PSA, 2.5 μg/mL of Insulin (Sigma, Cat #19278), 20 nM of Hydrocortisone (Sigma, Cat #H0888), 500 nM of Triiodothyronine (Sigma, Cat #T6397), 2.5 μg/mL of Transferrin (Sigma, Cat #T8158), 250 nM of Ethanolamine (Sigma, Cat #E0135), 1.5 μM of Epinephrine (Sigma, Cat #E4250), 250 nM of Phosphoethanolamine (Sigma, Cat #P0503), 10 nM of retinoic acid)) with 200 μL on top of the filter (apical side) and 700 μL at the bottom of the well (basolateral side). Cells were fed every other day with the differentiation media. After 4 days, cells were exposed to air/liquid interface. Then cells were fed every other day for 4 weeks before fully differentiated.
Cells were washed with 3 mM DTT in PBS at 70 ul/well for 30 min at 37° C. 6 days before the assay. 3 days before the assay, cells were washed again with PBS at 70 ul/well for 30 min at 37° C. Then cells were treated with compound for 24 hrs before the assay.
Following 24 hr treatment with compound, cells were transferred into plates containing 750 ul of assay media on basolateral side and 250 ul on apical side (Assay medium: F-12 Coon's modified, 20 mM HEPES pH7.4 with TRIS Base, No FCS or bicarbonate). The plates wee then transferred to the heated plate compartments (basolateral buffer temperature ˜36.5° C. on the heating block) of the TECC24 system for 45 mins prior to measurements.
Modulators were added sequentially as follows while the TECC24 instrument recorded the equivalent short circuit current (Ieq):
Prior to dilution into assay medium the stocks were as follows: • Benzamil stock: 10 mM in DMSO • Forskolin Stock: 50 mM in DMSO • N-(2,4-di-tert-butyl-5-hydroxyphenyl)-1,4-dihydro-4-oxoquinoline-3-carboxamide: 50 mM in DMSO • (S)-3-amino-6-methoxy-N-(3,3,3-trifluoro-2-hydroxy-2-methylpropyl)-5-(trifluoromethyl)picolinamide: 50 mM stock 100% DMSO • Bumetanide stock: 20 mM in EtOH
The data was normalized using the median signal from wells treated with 0.1% DMSO as a baseline. Curve fitting and EC50 calculations were performed using the following equation: […]

Cc1ccccc1-c1nc(NS(=O)(=O)c2cccc(N3CCC[C@H](CCC(=O)O)C3)n2)ccc1C(F)(F)F (single isomer, unassigned) [Compound 62]
EC50 [1]: 1.22 µM
EC50 [2]: 0.009 µM
MTECC24-CFHBEC Amax % [2]: 150%

Cc1ccccc1-c1nc(NS(=O)(=O)c2cccc(N3CCC[C@@H](CCC(=O)O)C3)n2)ccc1C(F)(F)F (single isomer, unassigned) [Compound 63]
EC50 [1]: 1.46 µM
EC50 [2]: 0.017 µM
MTECC24-CFHBEC Amax % [2]: 149%

Cc1ccc(F)cc1-c1nc(NS(=O)(=O)c2cccc(N3CCC[C@@](C)(CC(=O)O)C3)n2)ccc1C(F)(F)F (single isomer, unassigned) [Compound 64]
EC50 [1]: 1.33 µM
EC50 [2]: 0.002 µM
MTECC24-CFHBEC Amax % [2]: 107%

Cc1ccc(F)cc1-c1nc(NS(=O)(=O)c2cccc(N3CCC[C@](C)(CC(=O)O)C3)n2)ccc1C(F)(F)F (single isomer, unassigned) [Compound 65]
EC50 [1]: 1.73 µM
EC50 [2]: 0.031 µM
MTECC24-CFHBEC Amax % [2]: 155%

CCN(CCC(=O)O)c1cccc(S(=O)(=O)Nc2ccc(C(F)(F)F)c(-c3cccc(F)c3C)n2)n1 [Compound 56, 3-(ethyl(6-(N-(6-(3-fluoro-2-methylphenyl)-5-(trifluoromethyl)pyridin-2-yl)sulfamoyl)pyridin-2-yl)amino)propanoic Acid]
EC50 [1]: 2.17 µM
Emax [1]: 906%
EC50 [2]: 0.373 µM
MTECC24-CFHBEC Amax % [2]: 131%

CCN(CCC(=O)O)c1cc(S(=O)(=O)Nc2ccc(Cl)c(-c3c(C)cccc3C)n2)ccn1 [Compound 140, 3-((4-(N-(5-chloro-6-(2,6-dimethylphenyl)pyridin-2-yl)sulfamoyl)pyridin-2-yl)(ethyl)amino)propanoic Acid]
EC50 [1]: 2.92 µM
Emax [1]: 209%

CCC(CC(=O)O)Nc1cc(S(=O)(=O)Nc2ccc(Cl)c(-c3c(C)cccc3C)n2)ccn1 (stereo not drawn) [Compound 141]
EC50 [1]: 3.94 µM
Emax [1]: 291%

Cc1cccc(C)c1-c1nc(NS(=O)(=O)c2ccnc(NC(C)CC(=O)O)c2)ccc1Cl (stereo not drawn) [Compound 142, 3-((4-(N-(5-chloro-6-(2,6-dimethylphenyl)pyridin-2-yl)sulfamoyl)pyridin-2-yl)amino)butanoic Acid]
EC50 [1]: 4.46 µM
Emax [1]: 84%

Cc1ccccc1-c1nc(NS(=O)(=O)c2cccc(NC(C(=O)O)C34CC5CC(CC(C5)C3)C4)n2)ccc1C(F)(F)F (stereo not drawn) [Compound 143, 2-(adamantan-1-yl)-2-((6-(N-(6-(o-tolyl)-5-(trifluoromethyl)pyridin-2-yl)sulfamoyl)pyridin-2-yl)amino)acetic Acid]
EC50 [1]: 2.39 µM

CCN(CCC(=O)O)c1cc(S(=O)(=O)Nc2ccc(Cl)c(-c3cc(F)ccc3C)n2)ccn1 [Compound 144, 3-((4-(N-(5-chloro-6-(5-fluoro-2-methylphenyl)pyridin-2-yl)sulfamoyl)pyridin-2-yl)(ethyl)amino)propanoic Acid]
EC50 [1]: 4.55 µM
Emax [1]: 52%

CCN(CCC(=O)O)c1cccc(S(=O)(=O)Nc2ccc(C(F)(F)F)c(-c3c(C)cccc3C)n2)n1 [Compound 145, 3-((6-(N-(6-(2,6-dimethylphenyl)-5-(trifluoromethyl)pyridin-2-yl)sulfamoyl)pyridin-2-yl)(ethyl)amino)propanoic Acid]
EC50 [1]: 1.83 µM

Cc1ccccc1-c1nc(NS(=O)(=O)c2cccc(NCC(=O)O)n2)ccc1C(F)(F)F [Compound 146, (6-(N-(6-(o-tolyl)-5-(trifluoromethyl)pyridin-2-yl)sulfamoyl)pyridin-2-yl)glycine]
EC50 [1]: 2.5 µM
Emax [1]: 60%

Cc1ccccc1-c1nc(NS(=O)(=O)c2cccc(N(CCC(=O)O)C3CCC3)n2)ccc1C(F)(F)F [Compound 147, 3-(cyclobutyl(6-(N-(6-(o-tolyl)-5-(trifluoromethyl)pyridin-2-yl)sulfamoyl)pyridin-2-yl)amino)propanoic acid]
EC50 [1]: 1.15 µM
Emax [1]: 802%

Cc1ccccc1-c1nc(NS(=O)(=O)c2cccc(N(CCC(=O)O)CCC(F)(F)F)n2)ccc1C(F)(F)F [Compound 150, 3-((6-(N-(6-(o-tolyl)-5-(trifluoromethyl)pyridin-2-yl)sulfamoyl)pyridin-2-yl)(3,3,3-trifluoropropyl)amino)propanoic Acid]
EC50 [1]: 1.67 µM

Cc1ccc(F)cc1-c1nc(NS(=O)(=O)c2cccc(N(CCC(=O)O)CCC(F)(F)F)n2)ccc1C(F)(F)F [Compound 151, 3-((6-(N-(6-(5-fluoro-2-methylphenyl)-5-(trifluoromethyl)pyridin-2-yl)sulfamoyl)pyridin-2-yl)(3,3,3-trifluoropropyl)amino)propanoic Acid]
EC50 [1]: 1.9 µM

CCCCN(CCC(=O)O)c1cccc(S(=O)(=O)Nc2ccc(C(F)(F)F)c(-c3ccccc3C)n2)n1 [Compound 152, 3-(butyl(6-(N-(6-(o-tolyl)-5-(trifluoromethyl)pyridin-2-yl)sulfamoyl)pyridin-2-yl)amino)propanoic Acid]
EC50 [1]: 0.78 µM
Emax [1]: 641%

CCCCN(CCC(=O)O)c1cccc(S(=O)(=O)Nc2ccc(C(F)(F)F)c(-c3cc(F)ccc3C)n2)n1 [Compound 153, 3-(butyl(6-(N-(6-(5-fluoro-2-methylphenyl)-5-(trifluoromethyl)pyridin-2-yl)sulfamoyl)pyridin-2-yl)amino)propanoic Acid]
EC50 [1]: 0.82 µM
Emax [1]: 770%

Cc1ccccc1-c1nc(NS(=O)(=O)c2cccc(N(CCCC(=O)O)CC(C)C)n2)ccc1Cl [Compound 154, 4-((6-(N-(5-chloro-6-(o-tolyl)pyridin-2-yl)sulfamoyl)pyridin-2-yl)(isobutyl)amino)butanoic Acid]
EC50 [1]: 0.93 µM
Emax [1]: 686%

Cc1cccc(C)c1-c1nc(NS(=O)(=O)c2cccc(N(CCCC(=O)O)CC(C)C)n2)ccc1Cl [Compound 155, 4-((6-(N-(5-chloro-6-(2,6-dimethylphenyl)pyridin-2-yl)sulfamoyl)pyridin-2-yl)(isobutyl)amino)butanoic Acid]
EC50 [1]: 0.67 µM
Emax [1]: 699%

COCCN(CCCC(=O)O)c1cccc(S(=O)(=O)Nc2ccc(C(F)(F)F)c(-c3ccccc3C)n2)n1 [Compound 158, 4-((2-methoxyethyl)(6-(N-(6-(o-tolyl)-5-(trifluoromethyl)pyridin-2-yl)sulfamoyl)pyridin-2-yl)amino)butanoic Acid]
EC50 [1]: 1.81 µM
Emax [1]: 839%
